How the values were obtained:
[1] = Drug degradation in rat liver microsomes assessed as compound half life at 5 uM by UPLC-MS method; format: ADME, microsome
[2] = Drug metabolism in human liver microsomes assessed as deaminated morpholine acid metabolite formation at 5 uM after 60 mins by UPLC-MS analysis; format: ADME, microsome; details: 1 h
[3] = Drug metabolism in rat liver microsomes assessed as deaminated morpholine acid metabolite formation at 5 uM after 60 mins by UPLC-MS analysis; format: ADME, microsome; details: 1 h
[4] = tested on: Plasmodium berghei; test: Antimalarial activity against Plasmodium berghei infected in mouse assessed as reduction in parasitemia at 30 mg/kg, po administered as single dose measured on day 3 relative to control; format: functional; design: scale not given: the % may be the effect or the level left
[5] = Drug metabolism in human liver microsomes at 5 uM after 60 mins by UPLC-MS analysis; format: ADME, microsome; details: read-out: Drug metabolism
[6] = Drug metabolism in mouse liver microsomes assessed as metabolite M+32 (V) formation at 5 uM after 60 mins by UPLC-MS analysis; format: ADME, microsome; details: 1 h
[7] = Drug metabolism in rat liver microsomes assessed as morpholine dealkylated metabolite formation at 5 uM after 60 mins by UPLC-MS analysis; format: ADME, microsome; details: 1 h
[8] = Drug metabolism in rat liver microsomes assessed as bis-oxygenation and dehydrogenation metabolite formation at 5 uM after 60 mins by UPLC-MS analysis; format: ADME, microsome; details: 1 h
[9] = Cmax in humanized NOD.Cg-Prkdcscid Il2rgtm1Wjl/SzJ mouse infected with Plasmodium falciparum Pf3D70087/N9 at 100 mg/kg, po administered as single dose after 0.25 to 23 hrs by LC-MS/MS analysis; format: ADME, organism-based; design: dose 100 mg/kg, route oral; details: in vivo
[10] = Intrinsic clearance in human liver microsomes assessed per mg protein at 1 uM by UPLC-MS analysis; format: ADME, microsome; details: read-out: CLH
[11] = biological target: Cytochrome P450 2D6 (Homo sapiens, UniProt P10635); test: Inhibition of CYP2D6 in human liver microsomes assessed as dextromethorphan O-demethylation after 4 to 40 mins in presence of NADPH by LCMS analysis
[12] = Tmax in humanized NOD.Cg-Prkdcscid Il2rgtm1Wjl/SzJ mouse infected with Plasmodium falciparum Pf3D70087/N9 at 5 mg/kg, po administered as single dose by LC-MS/MS analysis; format: ADME, organism-based; details: in vivo
[13] = biological target: T1, Cytochrome P450 1A2 (Homo sapiens, UniProt P05177); test: Inhibition of CYP1A2 in human liver microsomes assessed as phenacetin O-deethylation after 4 to 40 mins in presence of NADPH by LCMS analysis; format: ADME
T1 sequence (P05177 whole entry): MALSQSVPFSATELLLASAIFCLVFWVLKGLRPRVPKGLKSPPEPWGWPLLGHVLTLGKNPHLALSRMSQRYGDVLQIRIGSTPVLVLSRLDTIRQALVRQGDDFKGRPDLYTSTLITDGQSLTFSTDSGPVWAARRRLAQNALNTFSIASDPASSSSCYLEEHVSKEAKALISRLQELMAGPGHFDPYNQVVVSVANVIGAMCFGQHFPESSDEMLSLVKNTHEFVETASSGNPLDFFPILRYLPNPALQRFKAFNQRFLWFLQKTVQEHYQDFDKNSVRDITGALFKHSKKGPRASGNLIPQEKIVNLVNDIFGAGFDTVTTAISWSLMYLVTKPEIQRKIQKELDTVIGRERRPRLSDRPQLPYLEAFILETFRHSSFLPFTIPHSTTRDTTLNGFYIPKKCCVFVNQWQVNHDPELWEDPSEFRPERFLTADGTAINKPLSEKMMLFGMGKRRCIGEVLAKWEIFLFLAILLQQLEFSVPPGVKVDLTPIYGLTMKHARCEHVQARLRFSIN

[14] = Drug metabolism in rat liver microsomes assessed as metabolite M+32 (IV) formation at 5 uM after 60 mins by UPLC-MS analysis; format: ADME, microsome; details: 1 h
[15] = Drug metabolism in rat liver microsomes assessed as metabolite M+32 (II) formation at 5 uM after 60 mins by UPLC-MS analysis; format: ADME, microsome; details: 1 h
[16] = Drug metabolism in mouse liver microsomes assessed as deaminated morpholine metabolite formation at 5 uM after 60 mins by UPLC-MS analysis; format: ADME, microsome; details: 1 h
[17] = Drug metabolism in mouse liver microsomes assessed as cleaved morpholine ring metabolite formation at 5 uM after 60 mins by UPLC-MS analysis; format: ADME, microsome; details: 1 h
[18] = Plasma concentration in Plasmodium berghei infected mouse at 30 mg/kg, po administered as single dose after 24 hrs; format: ADME, organism-based
[19] = AUC (0 to t) in humanized NOD.Cg-Prkdcscid Il2rgtm1Wjl/SzJ mouse infected with Plasmodium falciparum Pf3D70087/N9 at 5 mg/kg, po administered as single dose by LC-MS/MS analysis; format: ADME, organism-based; details: in vivo
[20] = Half life in Sprague-Dawley rat at 10 mg/kg, po; format: ADME, organism-based; details: in vivo
[21] = Drug metabolism in rat liver microsomes assessed as ring dehydrogenated metabolite formation at 5 uM after 60 mins by UPLC-MS analysis; format: ADME, microsome; details: 1 h
[22] = tested on: Mus musculus; test: Dose normalized Cmax in humanized NOD.Cg-Prkdcscid Il2rgtm1Wjl/SzJ mouse infected with Plasmodium falciparum Pf3D70087/N9 at 100 mg/kg, po administered as single dose after 0.25 to 23 hrs by LC-MS/MS analysis; format: ADME, organism-based; details: in vivo

Cytochrome P450 2D6, sequence (P10635 whole entry): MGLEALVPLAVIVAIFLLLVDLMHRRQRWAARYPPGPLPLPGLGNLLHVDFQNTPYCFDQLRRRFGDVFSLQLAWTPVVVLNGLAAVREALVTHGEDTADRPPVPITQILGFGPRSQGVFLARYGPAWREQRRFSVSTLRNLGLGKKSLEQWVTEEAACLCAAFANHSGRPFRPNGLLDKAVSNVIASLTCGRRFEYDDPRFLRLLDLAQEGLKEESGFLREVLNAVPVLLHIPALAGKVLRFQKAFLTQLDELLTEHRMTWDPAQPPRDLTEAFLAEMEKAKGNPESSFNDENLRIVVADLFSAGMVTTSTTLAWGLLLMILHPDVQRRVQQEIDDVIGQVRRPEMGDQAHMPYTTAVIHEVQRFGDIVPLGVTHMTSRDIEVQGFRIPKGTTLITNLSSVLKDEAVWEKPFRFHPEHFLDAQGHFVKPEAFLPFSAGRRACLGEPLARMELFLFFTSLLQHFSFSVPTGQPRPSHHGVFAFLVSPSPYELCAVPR

## c1cc(C2CCC3(CC2)OOC2(OO3)C3CC4CC(C3)CC2C4)ccc1CN1CCOCC1 (configuration not stated)
[1]
  half-life at 5 µM: 0.333 h
[2]
  Drug metabolism: Metabolite_Notdetected
[3]
  Drug metabolism: Metabolite_Notdetected
[4]
  Activity: 99.42%
[5]
  metabolised at 1 h, 5 µM: 63%
[6]
  Drug metabolism: Metabolite_Notdetected
[7]
  Drug metabolism: Metabolite_Notdetected
[8]
  Drug metabolism: Metabolite_Notdetected
[9]
  Cmax: 250 ng/mL
[10]
  microsomal CLint at 1 µM: 51 µL/min/mg
[11]
  IC50: > 20 µM
[12]
  Tmax: 1 h
[13]
  IC50: > 20 µM
[14]
  Drug metabolism: Metabolite_Detected
[15]
  Drug metabolism: Metabolite_Notdetected
[16]
  Drug metabolism: Metabolite_Notdetected
[17]
  Drug metabolism: Metabolite_Notdetected
[18]
  concentration at 24 h: > 100 ng/mL
[19]
  AUC(0-t): 1280 ng·h/mL
[20]
  half-life: 17 h
[21]
  Drug metabolism: Metabolite_Notdetected
[22]
  Cmax/dose: 0.0025 µg/mL/mg/kg
